Test results taken from paper PMC5053523, “In Vitro Antibacterial Activity of Rhodanine Derivatives against Pathogenic Clinical Isolates” (PLoS ONE, 2016).
Like-named read-outs stand apart in the source and are kept apart here.

Legend:
[1] = test system: vancomycin resistant enterococci (VRE); assay: Broth microdilution MIC50/MIC90, VRE panel; assay type: cell-based; conditions: 10 VRE strains; for MIC90: read-out: MIC 90; for MIC50: read-out: MIC 50
[2] = test system: established methicillin-resistant S. epidermidis biofilm (ATCC 35984, NRS 101); assay: Microtiter dish biofilm eradication assay (crystal violet); assay type: cell-based, Staphylococcus epidermidis; conditions: 24 h
Description: We used S. epidermidis ATCC 35984 (NRS 101), a high-slime producer isolated in septicemic patients, with colonized intravascular catheters from Tennessee, USA [10]. This strain is a multi-drug resistant strain, showing resistance to methicillin, erythromycin, kanamycin, gentamicin, clindamycin and trimethoprim. Briefly, an overnight culture of biofilm—producing MRSE was diluted 1:100 in a fresh medium containing 1% glucose in a 96-well tissue-culture treated plate. Bacteria were incubated at 37°C for 24 h to permit the formation of an adherent biofilm. The medium was removed and the biofilm was washed with PBS. Antibacterial drugs (vancomycin and linezolid) and rhodanine 2, at indicated concentration, were added and incubated again at 37°C for 24 h. Plates were washed again and biofilms were stained with 0.1% (wt/vol) crystal violet. Plates were washed with PBS, air-dried and biofilm mass was dissolved using 95% ethanol. The intensity of crystal violet was measured using a micro plate reader (SpectraMax i3x; Molecular Devices, Sunnyvale, CA, USA). Data are presented as the percent biofilm mass reduction in treated groups in relation to untreated wells.

Klebsiella pneumoniae [3] = assay: MIC with/without sub-MIC colistin, Klebsiella pneumoniae; assay type: cell-based
In short: (§1)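 Read-out is the MIC, determined with sub-inhibitory colistin or polymixin B nonapeptide co-applied to permeabilize the outer membrane of Gram-negative bacteria.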

Klebsiella pneumoniae [4] = assay: MIC with/without PMBN, Klebsiella pneumoniae; assay type: cell-based
In short: as §1

[5] = test system: vancomycin resistant enterococci (VRE) E. faecium; assay: Broth microdilution MIC/MBC, VRE E. faecium; assay type: cell-based; conditions: for MIC: read-out: MIC
Acinetobacter baumannii [6] = assay: MIC with/without PMBN, Acinetobacter baumannii; assay type: cell-based
In short: as §1

Salmonella Typhimurium = assay: MIC with/without sub-MIC colistin, Salmonella Typhimurium; assay type: cell-based
In short: as §1

B. licheniformis = assay: Broth microdilution MIC/MBC, B. licheniformis; assay type: cell-based; conditions: Bacillus licheniformis; for MBC: read-out: MBC; for MIC: read-out: MIC
B. cereus = assay: Broth microdilution MIC/MBC, B. cereus; assay type: cell-based; conditions: Bacillus cereus; for MBC: read-out: MBC; for MIC: read-out: MIC
Text: The broth microdilution technique was used, followed by subculturing on agar plates that were rhodanine—free.

[7] = test system: vancomycin resistant enterococci (VRE) E. faecalis; assay: Broth microdilution MIC/MBC, VRE E. faecalis; assay type: cell-based; conditions: for MIC: read-out: MIC
Bacillus anthracis = assay: microbe, parasite or virus in culture; assay type: cell-based
Acinetobacter baumannii [8] = assay: Broth microdilution MIC, Acinetobacter baumannii; assay type: cell-based
P. aeruginosa = assay: Broth microdilution MIC, P. aeruginosa; assay type: cell-based; conditions: Pseudomonas aeruginosa
MRSA USA300 = assay: MIC against MRSA USA300 with and without 4% human serum albumin; assay type: cell-based, Staphylococcus aureus; conditions: Staphylococcus aureus, read-out: MIC against MRSA USA300
In short: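 MIC measured in tryptic soy broth spiked with 4% HSA and without it, using CLSI broth microdilution on MRSA USA300. Value reported is the lowest concentration preventing bacterial growth.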

[9] = Klebsiella pneumoniae ATCC BAA 2146, colistin (+) […]
[10] = Klebsiella pneumoniae ATCC BAA 1706, PMBN (+) 4 μg/mL
[11] = Klebsiella pneumoniae ATCC BAA 2146, PMBN (+) 4 μg/mL
[12] = E. faecium HM 968 Strain ERV102
[13] = E. faecium NR31914 Strain E0120
[14] = E. faecium Patient #1–1 NR-31903
[15] = Acinetobacter baumannii ATCC BAA747, PMBN (+) 4 μg/mL, read-out: MIC
[16] = Acinetobacter baumannii ATCC BAA19606, PMBN (+) 4 μg/mL, read-out: MIC
[17] = Acinetobacter baumannii, ATCCBAA747
[18] = Acinetobacter baumannii, ATCCBAA19606
[19] = Salmonella Typhimurium ATCC 700720, colistin (+) […], read-out: MIC
[20] = Salmonella enterica, ATCC 700720 / TYPHIMURIUM
[21] = NCIB9375, B. licheniformis Gibson 46 (NCIB 9375) NR-2494
[22] = NRS712, B. licheniformis NRS 712 NR-2499
[23] = NRS201, B. cereus NRS 201 NR-2488
[24] = E. faecalis NR31972 Strain SF 28073

CC(=O)NC[C@H]1CN(c2ccc(N3CCOCC3)c(F)c2)C(=O)O1 [Linezolid, linezolid, reference compound]
64 µM: MBC ([7]; E. faecalis S613 HM-334)
2 µM: MIC90 ([1]; Enterococcus, VRE) | MIC50 ([1]; Enterococcus) | MIC ([5]; E. faecium E417 HM-965) | MIC ([5]; E. faecium E1071 NR-28978) | MIC [5, 12] | MIC [5, 13] | MBC (B. licheniformis; [21]) | MIC (B. licheniformis; [22]) | MBC (B. cereus; B. cereus BAG1O-2 NR-28582) | MIC (B. cereus; B. cereus BAG1O-2 NR-28582) | MBC (B. cereus; B. cereus BAG1X2-1 NR-28578) | MIC (B. cereus; B. cereus VD014 NR-22141) | MBC (B. cereus; B. cereus VD148 NR-22150) | MIC (B. cereus; B. cereus VD148 NR-22150) | MIC (B. cereus; [23]) | MIC ([7]; E. faecalis ERV103 HM-934) | MIC [7, 24] | MIC ([7]; E. faecalis R712 HM-335) | MIC ([7]; E. faecalis S613 HM-334) | MIC ([7]; E. faecalis TX0104 HM-201)
4 µM: MBC (B. licheniformis; [22]) | MBC (B. cereus; B. cereus VD014 NR-22141) | MBC (B. cereus; [23])
16 µM: MIC [5, 14]
< 0.5 µM: MIC (B. cereus; B. cereus BAG1X1-1 NR-28575) | MIC (B. cereus; B. cereus VD115 NR-22148)
1 µM: MIC (B. licheniformis; [21]) | MBC (B. cereus; B. cereus BAG1X1-1 NR-28575) | MIC (B. cereus; B. cereus BAG1X2-1 NR-28578) | MBC (B. cereus; B. cereus G9241 NR-9564) | MIC (B. cereus; B. cereus G9241 NR-9564) | MBC (B. cereus; B. cereus VD115 NR-22148)
not significantly decreased: biofilm mass reduction ([2]; high concentrations (up to 8 X MIC))
>64 µM: MIC (Klebsiella pneumoniae [3]; [9]) | MIC (Klebsiella pneumoniae [4]; [10]) | MIC (Klebsiella pneumoniae [4]; [11]) | MIC (Acinetobacter baumannii [6]; [15]) | MIC (Acinetobacter baumannii [6]; [16]) | MIC (Salmonella Typhimurium; [19])
> 64 µM: MBC ([5]; E. faecium E417 HM-965) | MBC ([5]; E. faecium E1071 NR-28978) | MBC [5, 12] | MBC [5, 13] | MBC [5, 14] | MBC ([7]; E. faecalis ERV103 HM-934) | MBC ([7]; E. faecalis TX0104 HM-201)
> 128 µM: MIC (Klebsiella pneumoniae [3]; Klebsiella pneumoniae, BAA2146) | MIC (Klebsiella pneumoniae [4]; Klebsiella pneumoniae, BAA1706) | MIC (Klebsiella pneumoniae [4]; Klebsiella pneumoniae, BAA2146) | MIC (Acinetobacter baumannii [6]; [17]) | MIC (Acinetobacter baumannii [6]; [18]) | MIC (Salmonella Typhimurium; [20])
32 µM: MBC [7, 24] | MBC ([7]; E. faecalis R712 HM-335)

O=C(O)[C@H](Cc1ccccc1)N1C(=O)/C(=C/c2cccc(-c3ccc(Cl)c(Cl)c3)c2)SC1=S [Rh 2]
4 µM: MIC90 [1] | MIC50 ([1]; Enterococcus) | MIC ([5]; E. faecium E417 HM-965) | MIC [5, 12] | MIC [5, 13] | MIC [5, 14] | MBC (B. licheniformis; [22]) | MIC (B. licheniformis; [22]) | MBC (B. cereus; B. cereus BAG1O-2 NR-28582) | MIC (B. cereus; B. cereus BAG1O-2 NR-28582) | MBC (B. cereus; B. cereus BAG1X2-1 NR-28578) | MBC (B. cereus; B. cereus G9241 NR-9564) | MIC (B. cereus; B. cereus G9241 NR-9564) | MBC (B. cereus; B. cereus VD115 NR-22148) | MIC (B. cereus; B. cereus VD115 NR-22148) | MBC (B. cereus; [23]) | MIC (B. cereus; [23]) | MBC ([7]; E. faecalis ERV103 HM-934) | MIC ([7]; E. faecalis ERV103 HM-934) | MIC [7, 24] | MBC ([7]; E. faecalis R712 HM-335) | MIC ([7]; E. faecalis R712 HM-335) | MBC ([7]; E. faecalis S613 HM-334) | MIC ([7]; E. faecalis S613 HM-334) | MBC ([7]; E. faecalis TX0104 HM-201) | MIC ([7]; E. faecalis TX0104 HM-201) | MIC (MRSA USA300; Media TSB)
> 64 µM: MIC (MRSA USA300; 24 h, Media TSB + 4% HSA)
>64 µM: MIC (Klebsiella pneumoniae [3]; [9]) | MIC (Klebsiella pneumoniae [4]; [10]) | MIC (Klebsiella pneumoniae [4]; [11]) | MIC (Acinetobacter baumannii [6]; [15]) | MIC (Acinetobacter baumannii [6]; [16]) | MIC (Salmonella Typhimurium; [19])
more than 35%: biofilm mass reduction ([2]; at 4 times its MIC, relative to untreated wells)
2 µM: MBC (Bacillus anthracis; Bacillus anthracis AMES35) | MIC (Bacillus anthracis; Bacillus anthracis AMES35) | MBC (Bacillus anthracis; Bacillus anthracis UM23) | MIC (Bacillus anthracis; Bacillus anthracis UM23) | MBC (Bacillus anthracis; Bacillus anthracis Weybridge) | MIC (Bacillus anthracis; Bacillus anthracis Weybridge) | MBC (B. licheniformis; [21]) | MIC (B. licheniformis; [21]) | MBC (B. cereus; B. cereus BAG1X1-1 NR-28575) | MIC (B. cereus; B. cereus BAG1X1-1 NR-28575) | MIC (B. cereus; B. cereus BAG1X2-1 NR-28578) | MBC (B. cereus; B. cereus VD014 NR-22141) | MIC (B. cereus; B. cereus VD014 NR-22141) | MBC (B. cereus; B. cereus VD148 NR-22150) | MIC (B. cereus; B. cereus VD148 NR-22150)
32 µM: MBC [5, 13] | MBC [7, 24]
> 45%: biofilm mass reduction ([2]; at 8 times its MIC, relative to untreated wells)
> 128 µM: MIC (Klebsiella pneumoniae [3]; Klebsiella pneumoniae, BAA2146) | MIC (Klebsiella pneumoniae [4]; Klebsiella pneumoniae, BAA1706) | MIC (Klebsiella pneumoniae [4]; Klebsiella pneumoniae, BAA2146) | MIC (Acinetobacter baumannii [6]; [17]) | MIC (Acinetobacter baumannii [6]; [18]) | MIC (Salmonella Typhimurium; [20]) | MIC (Acinetobacter baumannii [8]; ATCC13345) | MIC (Acinetobacter baumannii [8]; ATCC17786) | MIC (P. aeruginosa; ATCC9721) | MIC (P. aeruginosa; ATCC15442)
64 µM: MBC ([5]; E. faecium E417 HM-965) | MBC ([5]; E. faecium E1071 NR-28978) | MBC [5, 12] | MBC [5, 14]
8 µM: MIC90 ([1]; Enterococcus, VRE) | MIC ([5]; E. faecium E1071 NR-28978)
